From patent US10953027B2, “Active agents and methods of their use for the treatment of metabolic disorders and nonalcoholic fatty liver disease” (Flagship Pioneering Innovations V, Inc., priority 2018, dated 2021)

Experiments:
Assay type in all cases: in vitro ADME
[1] = Assay 3. Fecal Incubation Stability; settings: 1 or 10 μM, human fecal slurry, anaerobic
Protocol: Assay 3. Fecal Incubation Stability. This assay was used to assess the stability of an acylated active agent in a large intestine. All experiments were performed in an anaerobic chamber containing 90% nitrogen, 5% hydrogen and 5% carbon dioxide. Human fecal matter in a slurry (15% WV) is added to 96 well plates containing YCFA media or other suitable media (1.6 mL). Compounds were added to each individual well to reach a final analyte concentration of 1 or 10 μM, and the material was mixed by pipetting. At set time points a sample was removed, quenched with acetonitrile, and analyzed by LC/MS.

[2] = Assay 2. Stability in Simulated Intestinal Fluid (SIF); settings: 1 μM, 37° C., SIF pH 6.7 with pancreatin
Summary of the method: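 Degradation rate measured by LC/MS after acetonitrile quench of timed aliquots, starting at T0. Test compound 1 μM in simulated intestinal fluid (pH 6.7 phosphate buffer, FaSSIF powder, pancreatin), shaken at 37 °C.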

[3] = Assay 1. Stability in Simulated Gastric Fluid (SGF); settings: 1 μM, 37° C., SGF pH 1.6 with pepsin
Summary of the method: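 Simulated gastric fluid, prepared fresh as NaCl buffer at pH 1.6 with 0.1 mg/mL pepsin and FaSSIF powder, received test compound to 1 μM final and was held at 37 °C. LC/MS of acetonitrile-quenched samples, taken immediately and then periodically, gave degradation rates.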

Structure (SMILES) | Assay 3 (% Remaining at 24 h) [1] | Assay 2 (SIF) (% @ Remaining 4 hours) [2] | Assay 1 (SGF) (% Remaining @ 1 hours) [3]
O=C(CCc1c[nH]c2ccccc12)O[C@@H]1OC[C@H](OC(=O)CCc2c[nH]c3ccccc23)[C@H](OC(=O)CCc2c[nH]c3ccccc23)[C@H]1OC(=O)CCc1c[nH]c2ccccc12 [Compound 102, (2S,3R,4S,5S)-3,4,5-tris({[3-(1H-indol-3-yl)propanoyl]oxy})oxan-2-yl 3-(1H-indol-3-yl)propanoate] | A (A: <25% of the tested compound remaining) | A (A: <25% of the tested compound remaining) | B (B: 25-75% of the tested compound remaining)
CCCC(=O)O[C@@H]1[C@@H](OC(=O)CCC)[C@@H](OC)OC[C@H]1OC(=O)CCC [Compound 104, (2S,3R,4S,5R)-4,5-bis(butanoyloxy)-2-methoxyoxan-3-yl Butanoate] | A (A: <25% of the tested compound remaining) | A (A: <25% of the tested compound remaining) | B (B: 25-75% of the tested compound remaining)
CCC(=O)O[C@@H]1[C@@H](OC(=O)CC)[C@@H](OC)OC[C@H]1OC(=O)CC [Compound 105, (2S,3R,4S,5R)-2-methoxy-4,5-bis(propanoyloxy)oxan-3-yl Propanoate] | A (A: <25% of the tested compound remaining) | B (B: 25-75% of the tested compound remaining) | C (C: >75% of the tested compound remaining)
CCC(=O)O[C@@H]1[C@@H](OC(=O)CC)[C@H](OC)OC[C@H]1OC(=O)CC [Compound 106, (2R,3R,4S,5R)-2-methoxy-4,5-bis(propanoyloxyoxan-3-yl Propanoate] | A (A: <25% of the tested compound remaining) | A (A: <25% of the tested compound remaining) | C (C: >75% of the tested compound remaining)
CCC(=O)O[C@@H]1[C@@H](OC(=O)CC)[C@H](OC(=O)CCc2c[nH]c3ccccc23)OC[C@@H]1OC(=O)CC [Compound 107, (2S,3R,4S,5S)-3,4,5-tris(propanoyloxy)oxan-2-yl 3-(1H-indol-3-yl)propanoate] | A (A: <25% of the tested compound remaining) | A (A: <25% of the tested compound remaining) | C (C: >75% of the tested compound remaining)
CCC(=O)O[C@@H]1[C@@H](OC(=O)CC)[C@H](OC(=O)Cc2c[nH]c3ccccc23)OC[C@H]1OC(=O)CC [Compound 109, (2S,3R,4S,5R)-2-{[2-(1H-indol-3-yl)acetyl]oxy}-4,5-bis(propanoyloxy)oxan-3-yl Propanoate] | A (A: <25% of the tested compound remaining) | A (A: <25% of the tested compound remaining) | C (C: >75% of the tested compound remaining)
CCC(=O)O[C@H]1[C@H](OC(=O)CC)[C@@H](OC(=O)CCc2c[nH]c3ccccc23)O[C@@H](C)[C@H]1OC(=O)CC [Compound 110, (2R,3S,4R,5R,6S)-6-methyl-3,4,5-tris(propanoyloxy)oxan-2-yl 3-(1H-indol-3-yl)propanoate] | A (A: <25% of the tested compound remaining) | C (C: >75% of the tested compound remaining) | C (C: >75% of the tested compound remaining)
CCC(=O)O[C@@H]1O[C@@H](C)[C@H](OC(=O)CC)[C@@H](OC(=O)CC)[C@H]1OC(=O)CC [Compound 111, (2S,3R,4R,5S,6S)-6-methyl-3,4,5-tris(propanoyloxy)oxan-2-yl propanoate] | A (A: <25% of the tested compound remaining) | A (A: <25% of the tested compound remaining) | B (B: 25-75% of the tested compound remaining)
O=C(CCc1c[nH]c2ccccc12)O[C@@H]1OC[C@@H](OC(=O)CCc2c[nH]c3ccccc23)[C@@H](OC(=O)CCc2c[nH]c3ccccc23)[C@H]1OC(=O)CCc1c[nH]c2ccccc12 [Compound 113, (2S,3R,4R,5R)-3,4,5-tris({[3-(1H-indol-3-yl)propanoyl]oxy})oxan-2-yl 3-(1H-indol-3-yl)propanoate] | A (A: <25% of the tested compound remaining) | A (A: <25% of the tested compound remaining) | C (C: >75% of the tested compound remaining)
CCCC(=O)O[C@@H]1[C@@H](OC(=O)CCC)[C@H](C)O[C@@H](OC(=O)CCc2c[nH]c3ccccc23)[C@@H]1OC(=O)CCC [Compound 116, (2S,3R,4R,5S,6S)-4,5-bis(butanoyloxy)-2-{[3-(1H-indol-3-yl)propanoyl]oxy}-6-methyloxan-3-yl Butanoate] | A (A: <25% of the tested compound remaining) | A (A: <25% of the tested compound remaining) | C (C: >75% of the tested compound remaining)
CCCC(=O)O[C@H]1[C@H](OC(=O)CCC)[C@H](OC(=O)CCc2c[nH]c3ccccc23)O[C@@H](C)[C@H]1OC(=O)CCC [Compound 117, (2S,3S,4R,5R,6S)-4,5-bis(butanoyloxy)-2-{[3-(1H-indol-3-yl)propanoyl]oxy}-6-methyloxan-3-yl Butanoate] | A (A: <25% of the tested compound remaining) | A (A: <25% of the tested compound remaining) | C (C: >75% of the tested compound remaining)
CCCC(=O)OC[C@H]1O[C@@H](OC(=O)CCc2c[nH]c3ccccc23)[C@H](OC(=O)CCC)[C@@H](OC(=O)CCC)[C@@H]1OC(=O)CCC [Compound 118, [(2R,3R,4S,5R,6S)-3,4,5-tris(butanoyloxy)-6-{[3-(1H-indol-3-yl)propanoyl]oxy}oxan-2-yl]methyl Butanoate] | A (A: <25% of the tested compound remaining) | A (A: <25% of the tested compound remaining) | B (B: 25-75% of the tested compound remaining)
CCCC(=O)OC[C@H]1O[C@H](OC(=O)CCc2c[nH]c3ccccc23)[C@H](OC(=O)CCC)[C@@H](OC(=O)CCC)[C@@H]1OC(=O)CCC [Compound 122, [(2R,3R,4S,5R,6R)-3,4,5-tris(butanoyloxy)-6-{[3-(1H-indol-3-yl)propanoyl]oxy}oxan-2-yl]methyl Butanoate] | A (A: <25% of the tested compound remaining) | B (B: 25-75% of the tested compound remaining) | C (C: >75% of the tested compound remaining)
CCC(=O)O[C@@H]1[C@@H](OC(=O)CC)[C@H](OC(=O)/C=C/c2c[nH]c3ccccc23)OC[C@H]1OC(=O)CC [Compound 123, (2S,3R,4S,5R)-3,4,5-tris(propanoyloxy)oxan-2-yl (2E)-3-(1H-indol-3-yl)prop-2-enoate] | A (A: <25% of the tested compound remaining) | A (A: <25% of the tested compound remaining) | C (C: >75% of the tested compound remaining)
CCC(=O)O[C@H]1[C@H](OC(=O)/C=C/c2c[nH]c3ccccc23)OC[C@@H](OC(=O)CC)[C@H]1OC(=O)CC [Compound 124, (2S,3R,4R,5R)-3,4,5-tris(propanoyloxy)oxan-2-yl (2E)-3-(1H-indol-3-yl)prop-2-enoate] | A (A: <25% of the tested compound remaining) | A (A: <25% of the tested compound remaining) | C (C: >75% of the tested compound remaining)
CCC(=O)O[C@@H]1[C@@H](OC(=O)CC)[C@@H](OC(=O)/C=C/c2c[nH]c3ccccc23)OC[C@H]1OC(=O)CC [Compound 125, (2R,3R,4S,5R)-3,4,5-tris(propanoyloxy)oxan-2-yl (2E)-3-(1H-indol-3-yl)prop-2-enoate] | A (A: <25% of the tested compound remaining) | A (A: <25% of the tested compound remaining) | C (C: >75% of the tested compound remaining)
CCC(=O)O[C@H]1[C@@H](OC(=O)CCc2c[nH]c3ccccc23)OC[C@@H](OC(=O)CC)[C@H]1OC(=O)CC [Compound 126, (2R,3R,4R,5R)-3,4,5-tris(propanoyloxy)oxan-2-yl 3-(1H-indol-3-yl)propanoate] | A (A: <25% of the tested compound remaining) | A (A: <25% of the tested compound remaining) | C (C: >75% of the tested compound remaining)
CCCC(=O)O[C@@H]1[C@@H](OC(=O)CCC)[C@@H](OC(=O)CCc2c[nH]c3ccccc23)OC[C@H]1OC(=O)CCC [Compound 128, (2R,3R,4S,5R)-4,5-bis(butanoyloxy)-2-{[3-(1H-indol-3-yl)propanoyl]oxy}oxan-3-yl Butanoate] | A (A: <25% of the tested compound remaining) | A (A: <25% of the tested compound remaining) | C (C: >75% of the tested compound remaining)
